Source: patent US20250388597A1, “BIFUNCTIONAL PHOTOCROSSLINKING PROBES FOR COVALENT CAPTURE OF PROTEIN-NUCLEIC ACID COMPLEXES IN CELLS” (UNIVERSITY OF SOUTHERN CALIFORNIA, priority 2022, published 2025)
“Also recorded” adds a separate entry of the source.

Experiments:
Nkx2.5/DNA complex = biological target: T1, Nkx2.5/DNA complex (Homo sapiens, UniProt P52952); assay: BFPX crosslinking of Nkx2.5/DNA complexes, SDS PAGE; format: biochemical; conditions: denaturing SDS PAGE; probes with UV
T1 construct: human Nkx2.5 DBD (the homeodomain); made in house
Description: FIG. 12H depicts BFPX crosslinking of Nkx2.5/DNA complexes. […] The various treatment combinations were list above the gel. The reactions were then analyzed by SDS PAGE under denaturing condition as described in FIG. 12D.

p53/DNA complex = biological target: T2, p53/DNA complex (Homo sapiens, UniProt P04637); assay: BFPX crosslinking of p53/DNA complexes, SDS PAGE; format: biochemical; conditions: denaturing SDS PAGE; probes with UV; vs no-protein controls
T2 construct: the human tumor suppressor p53 DBD; made in house
Description: FIG. 12I depicts BFPX crosslinking of p53/DNA complexes. The binding reactions between the human tumor suppressor p53 DBD and a 37 mer Cy5 labeled DNA containing a consensus p53 tetramer binding site (5′-/5Cy5/-[…]-3′, (SEQ ID NO: 8)) were set up and treated with BFPX probes and UV illumination as described in FIG. 12C. The various treatment combinations were list above the gel. The reactions were then analyzed by SDS PAGE under denaturing condition as described in FIG. 12D. […] Because p53 bind this this DNA substrate as a tetramer, crosslinked p53/DNA complexes may contain one or more p53 protein molecules. While the monomeric p53/DNA complex appears to be the dominant crosslinked protein-DNA complexes, higher-molecule weight species were visible in SDS gel, which may correspond to crosslinked higher-order p53/DNA complex.

NFAT1/DNA complex = biological target: T3, NFAT1/DNA complex (Homo sapiens, UniProt Q13469); assay: In vitro photo-crosslinking of assembled NFAT1/DNA complex, denaturing SDS gel; format: biochemical; conditions: for formation of covalent NFAT1/DNA crosslinked complex stable under denaturing SDS-PAGE: probe + UV 365 nm, 2% SDS, boil 10 min
T3 construct: human NFAT1 protein (residue 399-676, NFAT1-DBD)
T3 sequence (Q13469 399-676): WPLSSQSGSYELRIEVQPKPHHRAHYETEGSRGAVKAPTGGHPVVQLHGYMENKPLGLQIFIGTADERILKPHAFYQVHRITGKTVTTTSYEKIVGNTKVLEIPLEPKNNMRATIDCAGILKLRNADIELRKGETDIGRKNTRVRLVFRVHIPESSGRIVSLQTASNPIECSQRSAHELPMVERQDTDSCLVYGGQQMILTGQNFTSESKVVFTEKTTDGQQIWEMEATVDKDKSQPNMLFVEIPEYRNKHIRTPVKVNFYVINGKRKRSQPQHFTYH
Description: The probe binding and UV crosslinking were carried out as described in FIG. 5G and FIG. 7. The crosslinked complexes (lane 3 and lane 6) were further treated with DTT (100 mM, heat 50 degree C. for 30 min). The reaction mixtures were run on SDS gel and visualized by FAM fluorescence for DNA (top) and by Coomassie blue stain for protein (bottom) as described in FIG. 7. FIG. 7 depicts denaturing SDS gel analysis of covalent capture of in vitro assembled MEF2/DNA and NFAT1/DNA complexes by the BFPX probe, SPB-AAD. […] The protein/DNA complexes are incubated at room temperature for 30 min, and treated with various combination of BFPX probe (SPB-AAD) and UV illumination as described in FIG. 5G. […] The reaction mixtures were added SDS loading dye (2% SDS), boil for 10 min, and run on SDS gel (Bio-Rad Any Kd gradient gel). The same gel was visualized by FAM fluorescence for DNA (top) and by Coomassie blue stain for protein (bottom). FIG. 8C depicts denaturing SDS gel analysis of covalent capture of in vitro assembled MEF2/DNA and NFAT1/DNA complexes by the BFPX probe, SPB-PEG3-AAD. […] The reaction mixtures were run on SDS gel and visualized by FAM fluorescence for DNA (top) and by Coomassie blue stain for protein (bottom) as described in FIG. 7. […] Typically protein and DNA are mixed to bind at room temperature for 30 min, followed by addition of BFPX probes for an additional 15 min and then UV illumination. In the case of FA treatment, the reaction time is 10 min at room temperature and then quenched by 250 mM glycine. […] The UV illumination (as indicated by a positive sign) was carried out using a LED Chip (21.4 mm×21.4 mm, 365-370 nm, 30 Watt, sample distance 2 cm, exposure time 2-15 min at 4 degree C., here the exposure time is 15 min). […] The small amount of single stranded DNA is due to incomplete annealing. The higher smearing bands are most likely non-specific protein complexes. Neither of these experimental imperfections affected the main conclusion of this experiment because the double stranded-DNA bands and the specific NFAT-DNA complex bands (the middle sharp bands) are well defined and can be monitored without the interference of the other bands. […] The gel was visualized by Cy5 fluorescence for DNA. FIG. 12E depicts further characterization of BFPX crosslinking of NFAT1/DNA complexes using different DNA substrates and staining techniques. Two unlabeled DNA substrates containing a core NFAT-binding site and different flanking bases and sequence lengths ([…] ID NO: 4), 21 mer, c2: [NT] ID NO: 5), 16 mer) were used to bind the NFAT1-DBD as described in FIG. 12C. […] The reactions were then analyzed by SDS PAGE under denaturing condition as described in FIG. 12D. Because the DNA is unlabeled, the gel was stained using either cyanine-based dye (SYBR Safe) or Coomassie Blue stain (CB). […] The different size of the NFAT-c1DNA complexes (lane 2) and NFAT-c2DNA complexes (lane 4) was resolved by loading reactions of lane 2 (2a, 2b and 2c) and lane 4 (4a, 4b and 4c) as triplicates side-by-side on the same gel (lower panel) using either SYBR and CB stain. FIG. 12F depicts time course of BFPX crosslinking of NFAT1/DNA complexes. […] The reactions at different time points were then analyzed on SDS gel as described in FIG. 12D. […] When the UV exposure time is longer than 5 min, a significant amount of crosslinked NFAT-DNA complex can be formed with UV illumination without SPB-AAD.

DNA binding by NFAT1 = biological target: T4, DNA binding by NFAT1 (Homo sapiens, UniProt Q13469); assay: Native EMSA of the effect on DNA binding by NFAT1; format: biochemical; conditions: FIG. 12C; increasing concentrations; probes with UV 365 nm 15 min; compared to control lane 3
T4 construct: human NFAT1 protein (residue 399-676, NFAT1-DBD)
T4 sequence (Q13469 399-676): T3 sequence (Q13469 399-676)
Description: All binding reactions contain 10 μM 27 mer dsDNA (5′6-FAM labeled) with a NFAT-binding site, and various combinations of NFAT1 protein (14 μM), FA (1% v/v), 4AMT-LC-SDA (20 μM), with or without UV illumination (365 nm, LED, 30 Watt, sample distance 2 cm, exposure time 15 min at 4 degree C.). 10 μl of the binding reaction is run on a 10% PAGE 0.5×TBE gel. The same gel was visualized by FAM fluorescence for DNA (top) and by Coomassie blue stain for protein (bottom). The higher smearing bands in lane 3, 8, 9, and 10 are most likely non-specific protein complexes often seen when an excessive amount of protein is used to ensure all DNA is bound.
The binding reactions were performed in a buffer of 20 mM Hepes pH 7.6, 150 mM NaCl, 1 mM DTT, 12% glycerol. Typically protein and DNA are mixed to bind at room temperature for 30 min, followed by addition of BFPX probes for an additional 15 min and then UV illumination. In the case of FA treatment, the reaction time is 10 min at room temperature and then quenched by 250 mM glycine. When included (as indicated by a positive sign), the binding reaction contains 10 μM 27 mer dsDNA (Cy5-labeled) with a NFAT-binding site (the antigen receptor response element 2, ARRE2, from the IL-2 promoter, 5′-Cy5-[sequence]-3′ (SEQ ID NO: 2), the complementary strand is not labeled), 24 μM of the DNA binding domain (DBD) of human NFAT1 protein (residue 399-676, NFAT1-DBD). The UV illumination (as indicated by a positive sign) was carried out using a LED Chip (21.4 mm×21.4 mm, 365-370 nm, 30 Watt, sample distance 2 cm, exposure time 2-15 min at 4 degree C., here the exposure time is 15 min). Half of the binding reaction (7.5 μl) was run on a 10% PAGE 0.5×TBE gel and visualized by Cy5 fluorescence on DNA. The small amount of single stranded DNA is due to incomplete annealing. The higher smearing bands are most likely non-specific protein complexes. Neither of these experimental imperfections affected the main conclusion of this experiment because the double stranded-DNA bands and the specific NFAT-DNA complex bands (the middle sharp bands) are well defined and can be monitored without the interference of the other bands.
The presence of both DNA and protein in the same shifted band can be checked by the FAM fluorescence signal (top) and Coomassie stain (bottom), respectively (free NFAT is positively charged and not observable under the EMSA condition).

[1] = system: double stranded DNA and RNA; conditions: cited from earlier work; for efficiency of covalent crosslinking to DNA: long-wavelength (˜360 nm) UV illumination
MEF2A/DNA complex = biological target: T5, MEF2A/DNA complex (Homo sapiens, UniProt Q02078); assay: In vitro photo-crosslinking of assembled MEF2/DNA complex, read on denaturing SDS/urea gel or agarose gel; format: biochemical
T5 construct: human MEF2A DBD (residues 2-95); made in house
T5 sequence (Q02078 2-95): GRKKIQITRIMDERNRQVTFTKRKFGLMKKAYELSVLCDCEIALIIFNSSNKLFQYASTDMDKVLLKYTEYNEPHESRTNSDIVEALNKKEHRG
Text: In vitro assays have confirmed the success and the efficiency of the demo probe (AMT-LC-SDA) in crosslinking double strand DNA of various contents and DNA-binding protein human myocyte enhancer factor 2A (MEF2A) (1-95 aa) (FIG. 5C-FIG. 5E). The solid crosslinking is confirmed for the probe with UV photo crosslinking conditions by denaturing or digestive approaches such as running with 8.3 M urea gel, SDS gel, combined with sample with overnight digestion of proteinase K at 65 Celsius and denatured at high temperature of 95 Celsius with SDS loading dye. […] Under these harsh evaluation conditions, the protein got digested on the crosslinking complex thoroughly, yet the remaining crosslinked amino acids residuals still have made the DNA to be in a larger size and shifted clearly compared to other controls, which is indicated by the bold shaped arrow. Agarose gel was also used for its bigger pore size to estimate the crosslinking efficiency (UV 2 hrs), estimated by the amount of the left free DNA, our probe has reached around 30-60% efficiency (FIG. 5E), which is much higher than the UV-initiated protein DNA crosslinking without the use of a probe (10-20%) as reported in Nature Communications, volume 11, Article number: 3019 (2020). […] This further supports the idea of applying this probe for replacement of formaldehyde, it crosslinks the protein only within the proximity of nucleic acids, thereby largely reducing the random protein-protein crosslinking noise and helps to preserve the native state of protein epitopes.
The BFPX probe 4AMT-LC-SDA was synthesized with good yield by the NHS-amine chemistry using psoralen and diazirine derivatives (FIG. 5A, FIG. 5B). To test its photo crosslinking ability, human transcription factor MEF2A (the MADS-box/MEF2 domain) and double strand DNA containing a MEF2 binding site were used. We first used electrophoresis mobility shift assay (EMSA) to validate the activity of the purified recombinant MEF2A DNA-binding domain. After finding out the optimal protein to DNA ratio, the in vitro assembled MEF2/DNA complex was then subject to photocrosslinking in the presence or absence of the 4AMT-LC-SDA probe with or without UV illumination. Multiple other control experiments were carried out in parallel to test the specificity of photocrosslinking between the DNA and MEF2. Specifically, parameters such as protein/DNA amounts (1:[…]), ratio, UV time (10 m to 4 hrs), wavelength (320 to 360 nm), LV source (mercury long lamp, LED) and their distance to the reaction mixture have been optimized along the course. The MEF2 Protein and DNA were incubated first to mimic an in vivo binding mode and stoichiometry, and then the mixture was incubated with our 4AMT-LC-SDA probe to undergo UV illumination. The results were evaluated by running denaturing gels (SDS in FIG. 5D, or Urea in FIG. 5C) against the high temperature denatured reaction mixtures and checking the respective protein (silver stain) or DNA (FAM label) signals. To further rule out any other possible false positiveness during loading, proteinase K digestion was applied to all the samples including the negative controls with SDS at 65 degrees.

T2 sequence (P04637 102-292 limits assumed, one chain of several): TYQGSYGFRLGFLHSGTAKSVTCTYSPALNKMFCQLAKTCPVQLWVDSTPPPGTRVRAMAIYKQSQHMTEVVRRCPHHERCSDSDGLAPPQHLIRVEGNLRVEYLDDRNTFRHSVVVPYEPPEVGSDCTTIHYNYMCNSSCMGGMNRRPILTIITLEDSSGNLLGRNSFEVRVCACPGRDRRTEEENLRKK
T1 sequence (P52952 138-197 limits assumed, one chain of several): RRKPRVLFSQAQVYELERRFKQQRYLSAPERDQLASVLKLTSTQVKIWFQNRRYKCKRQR

Structure (SMILES): CC1(CCC(=O)NCCCCCC(=O)NCCCCNCCCNC(=O)CCCOc2c3occc3cc3ccc(=O)oc23)N=N1 [SPB-Spermidine-AD, 6-(3-(3-methyl-3H-diazirin-3-yl)propanamido)-N-(4-((3-(4-((7-oxo-7H-furo[3,2-g]chromen-9-yl)oxy)butanamido)propyl)amino)butyl)hexanamide]
- crosslinking of the Nkx2.5/DNA complex (Nkx2.5/DNA complex): significant crosslinking of the Nkx2.5/DNA complex
- crosslinking of the p53/DNA complex (p53/DNA complex): significant crosslinking of the p53/DNA complex
- apparent crosslinking efficiency (intensity of the complex band over the total DNA intensity) (NFAT1/DNA complex): 22.5%
- crosslinking efficiency normalized against the total protein/DNA complex (NFAT1/DNA complex): ~47%
- formation of covalent NFAT1/DNA crosslinked complex stable under denaturing SDS-PAGE (NFAT1/DNA complex): dosage dependent crosslinking of NFAT1/DNA complexes
- effect on the binding of NFAT1 to DNA (DNA binding by NFAT1): little or no effect

Structure (SMILES): Cc1oc2c(C)c3oc(=O)cc(C)c3cc2c1CN [4AMT, 4′-aminomethyltrioxsalen]
- efficiency of covalent crosslinking to DNA [1]: up to 80%

Structure (SMILES): Cc1oc2c(C)c3oc(=O)cc(C)c3cc2c1CNC(=O)CCSSCCNC(=O)CCC1(C)N=N1 [4AMT-SDAD]
- effect of DTT treatment on the crosslinked NFAT-DNA complex (NFAT1/DNA complex; 25 μM probe, DTT 100 mM, 50 degree C., 30 min, FIG. 5H): reduced significantly
- formation of covalent NFAT1/DNA crosslinked complex stable under denaturing SDS-PAGE (NFAT1/DNA complex; listed as 4AMT-LC-SDAD): highly efficient crosslinking; also recorded: crosslinked NFAT to its DNA substrate efficiently
- release of crosslinked MEF2/DNA complexes by reductive cleavage (MEF2A/DNA complex; probe 10-100 μM, UV 15 min, 200 mM TCEP at 37° C. overnight): can be released by reductive cleavage of the disulfide bond
- formation of covalent MEF2/DNA crosslinked complex (MEF2A/DNA complex; probe + UV, denaturing gel): highly efficient crosslinking

Structure (SMILES): O=c1ccc2cc3ccoc3cc2o1 [Psoralen, psoralen]
- affinity for double stranded DNA and RNA [1]: μM (Kd) affinity
- efficiency of covalent crosslinking to DNA [1]: up to 80%
